According to paper PMC10272112 (Nature Communications, 2023):
Where “and” joins values, the source holds several entries; their conditions need not be identical. Identical values can stand only once. Values belong to the compound of their own block, whether it stands above or below them.

Experiments:
HDAC3/NcoR2 complex = biological target: T1, HDAC3/NcoR2 complex (Homo sapiens, UniProt O15379); assay: HDAC-Glo assay; type: biochemical; conditions: read-out: log EC50 from dose-dependent HDAC inhibition curves (converted)
T1 construct: purchased BPS Bioscience 50003
Protocol: (§1) To validate the inhibition of HDACs by LA and LM and elaborate on the structure-activity relationship (SAR) of enantiomers as well as oxidized versus reduced forms of the molecules, we performed enzyme activity assays for recombinant HDAC1,2,3,6,8 as well as FRET-based binding assay for recombinant HDAC10.
(§2) The experiments were performed according to ref. [48]. […] Drug dosing was performed with a D300e Digital Dispenser (Tecan). HDACs (7 ng/mL for HDAC1, 25 ng/mL for HDAC2, 200 ng/mL for HDAC3/Ncor2 complex, 100 ng/mL for HDAC6, 200 ng/mL for HDAC8) and inhibitors were incubated together at room temperature (RT) for 30 min. After the addition of the HDAC-Glo™ I/II reagent, plates were shaken (800 rpm orbital shaker, 30 s), centrifuged (300 g, 1 min), and incubated at RT for 30 min. Luminescence was detected with a CLARIOstar (BMG Labtech) plate reader.

HDAC2 = HDAC2 (Homo sapiens, UniProt Q92769); assay: HDAC-Glo assay; type: biochemical; parameters: purchased BPS Bioscience 50002; conditions: read-out: log EC50 from dose-dependent HDAC inhibition curves (converted)
Protocol: as §1, §2

HDAC6 = biological target: T2, HDAC6 (Homo sapiens, UniProt Q9UBN7); assay: HDAC-Glo assay; type: biochemical; parameters: purchased BPS Bioscience 50006; conditions: read-out: log EC50 from dose-dependent HDAC inhibition curves (converted)
T2 sequence (Q9UBN7 1-1215): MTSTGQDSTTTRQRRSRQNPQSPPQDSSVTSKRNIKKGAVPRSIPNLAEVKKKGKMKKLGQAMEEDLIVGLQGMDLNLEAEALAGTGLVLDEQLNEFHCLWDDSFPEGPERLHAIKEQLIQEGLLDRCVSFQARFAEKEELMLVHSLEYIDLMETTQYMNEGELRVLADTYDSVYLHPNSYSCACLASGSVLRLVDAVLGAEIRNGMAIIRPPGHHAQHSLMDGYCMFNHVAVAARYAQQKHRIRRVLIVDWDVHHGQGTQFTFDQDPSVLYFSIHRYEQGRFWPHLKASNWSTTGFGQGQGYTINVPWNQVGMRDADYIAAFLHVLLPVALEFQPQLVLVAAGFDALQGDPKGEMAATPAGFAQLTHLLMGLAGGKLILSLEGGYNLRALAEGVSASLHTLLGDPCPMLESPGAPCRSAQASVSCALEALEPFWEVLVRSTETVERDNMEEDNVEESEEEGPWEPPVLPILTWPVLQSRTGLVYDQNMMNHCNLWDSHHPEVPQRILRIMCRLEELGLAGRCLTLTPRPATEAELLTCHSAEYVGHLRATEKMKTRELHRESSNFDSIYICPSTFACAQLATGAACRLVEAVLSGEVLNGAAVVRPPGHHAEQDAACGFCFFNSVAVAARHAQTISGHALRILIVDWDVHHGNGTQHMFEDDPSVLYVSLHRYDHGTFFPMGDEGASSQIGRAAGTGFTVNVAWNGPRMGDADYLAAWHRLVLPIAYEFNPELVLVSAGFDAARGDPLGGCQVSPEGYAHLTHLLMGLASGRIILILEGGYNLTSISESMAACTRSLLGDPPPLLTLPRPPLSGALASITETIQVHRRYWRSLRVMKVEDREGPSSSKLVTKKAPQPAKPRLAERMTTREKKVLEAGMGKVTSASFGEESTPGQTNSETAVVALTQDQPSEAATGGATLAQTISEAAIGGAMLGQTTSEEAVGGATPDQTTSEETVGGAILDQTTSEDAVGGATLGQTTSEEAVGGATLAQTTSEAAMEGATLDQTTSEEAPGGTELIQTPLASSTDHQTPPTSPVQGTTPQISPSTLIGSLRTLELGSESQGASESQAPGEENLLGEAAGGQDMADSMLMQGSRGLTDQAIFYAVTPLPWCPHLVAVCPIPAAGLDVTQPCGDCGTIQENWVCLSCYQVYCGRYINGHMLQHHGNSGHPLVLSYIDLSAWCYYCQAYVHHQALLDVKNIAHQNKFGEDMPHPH
Protocol: as §1, §2

HDAC8 = biological target: T3, HDAC8 (Homo sapiens, UniProt Q9BY41); assay: HDAC-Glo assay; type: biochemical; parameters: purchased BPS Bioscience 50008; conditions: read-out: log EC50 from dose-dependent HDAC inhibition curves (converted)
T3 sequence (Q9BY41 1-377): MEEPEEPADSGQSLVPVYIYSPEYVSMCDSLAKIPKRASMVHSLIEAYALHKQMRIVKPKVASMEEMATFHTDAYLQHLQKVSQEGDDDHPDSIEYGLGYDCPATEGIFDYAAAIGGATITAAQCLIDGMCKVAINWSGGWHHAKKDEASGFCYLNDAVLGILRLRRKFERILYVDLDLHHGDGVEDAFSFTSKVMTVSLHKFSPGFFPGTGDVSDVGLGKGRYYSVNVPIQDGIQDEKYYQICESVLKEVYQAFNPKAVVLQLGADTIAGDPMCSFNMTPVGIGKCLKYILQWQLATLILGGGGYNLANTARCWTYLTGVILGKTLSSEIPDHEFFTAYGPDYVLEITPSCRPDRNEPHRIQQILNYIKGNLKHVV
Protocol: as §1, §2

HDAC1 = HDAC1 (Homo sapiens, UniProt Q13547); assay: HDAC-Glo assay; type: biochemical; parameters: purchased BPS Bioscience 50051; conditions: for raw luminescence signal, HDAC1 inhibition: 0.5 M TCEP
Protocol: as §1, §2

α-Tubulin AcK40 = assay: α-tubulin acetylation detection by western blot, CBP-HA transfected HEK293T; type: cell-based; conditions: HEK293T, ACY-738 5 µM
Protocol: (§3) 0.2 × 10^6 HEK293T (ATCC: CRL-3216) cells were transfected with pcDNA 3.1-HA CBP plasmids (1 μg/well for the 6-well plate) by FuGENE. After 2 days, cells were treated with ACY-738, lipoic acid, and lipoamide for 7 h, then were washed by ice-cold PBS and lysed in Triton lysis buffer (50 mM Tris, pH 8.0, 150 mM NaCl, 1 mM EDTA, 0.1% TritonX-100 and complete EDTA-free protease inhibitors (Roche)) for analysis. To detect protein acetylation, 0.2 μM Trichostatin A and 5 mM nicotinamide were added to PBS for washing, and 10 μM trichostatin A, 10 mM nicotinamide, and 50 mM sodium butyrate were added to Triton lysis buffer.

DDX3X AcK118 [1] = assay: DDX3X acetylation detection by western blot, CBP-HA transfected HEK293T; type: cell-based; conditions: 5 µM
Protocol: as §3

A549 cells [2] = assay: CellRox deep red assay for ROS quantification (with or without arsenite); type: cell-based; conditions: sheet 4d
A549 cells [3] = assay: CellRox deep red assay for tBuOOH-induced ROS; conditions: NAC 500 ?M; sheet 4c; DMSO mean = 1
[4] = tested on: HDACs (HDAC1, HDAC2, HDAC6); parameters: method as in earlier work; conditions: ref Bantscheff et al., Nat Biotech, 2011; Lechner et al., Nat Chem Bio, 2023; read-out: EC50 in comparable chemoproteomic competition assays; cited from earlier work
DDX3X AcK118 [5] = conditions: 10 µM; cited from earlier work

Sequence of HDAC1 (Q13547 whole entry): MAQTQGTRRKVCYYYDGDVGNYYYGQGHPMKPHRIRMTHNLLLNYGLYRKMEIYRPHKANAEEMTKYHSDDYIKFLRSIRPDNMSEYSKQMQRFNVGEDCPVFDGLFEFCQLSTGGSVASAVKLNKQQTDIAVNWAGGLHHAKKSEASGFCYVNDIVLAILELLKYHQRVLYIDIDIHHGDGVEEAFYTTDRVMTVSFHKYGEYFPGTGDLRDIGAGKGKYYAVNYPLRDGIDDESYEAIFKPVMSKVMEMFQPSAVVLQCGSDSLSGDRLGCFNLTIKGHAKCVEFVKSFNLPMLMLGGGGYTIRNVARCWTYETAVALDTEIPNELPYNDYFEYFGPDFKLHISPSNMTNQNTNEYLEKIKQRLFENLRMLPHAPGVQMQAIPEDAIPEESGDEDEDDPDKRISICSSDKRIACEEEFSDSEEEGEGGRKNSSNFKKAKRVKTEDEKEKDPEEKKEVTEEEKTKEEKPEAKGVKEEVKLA
T1 sequence (O15379 whole entry): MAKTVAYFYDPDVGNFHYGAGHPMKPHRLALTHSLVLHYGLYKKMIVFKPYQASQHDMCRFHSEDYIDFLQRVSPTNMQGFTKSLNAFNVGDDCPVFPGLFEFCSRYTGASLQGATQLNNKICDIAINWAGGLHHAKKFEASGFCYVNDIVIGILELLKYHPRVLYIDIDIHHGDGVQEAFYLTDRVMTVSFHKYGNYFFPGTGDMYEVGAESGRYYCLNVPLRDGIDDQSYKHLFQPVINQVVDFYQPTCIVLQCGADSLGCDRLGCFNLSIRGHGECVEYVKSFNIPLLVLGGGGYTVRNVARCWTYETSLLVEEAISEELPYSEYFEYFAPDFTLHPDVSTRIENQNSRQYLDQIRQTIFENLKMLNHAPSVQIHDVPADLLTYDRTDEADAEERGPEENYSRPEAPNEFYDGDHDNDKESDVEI
T1 sequence (Q9Y618 395-489 partner limits assumed): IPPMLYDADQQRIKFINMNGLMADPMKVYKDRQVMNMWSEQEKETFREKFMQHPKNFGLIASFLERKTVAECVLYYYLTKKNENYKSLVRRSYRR
Sequence of HDAC2 (Q92769 whole entry): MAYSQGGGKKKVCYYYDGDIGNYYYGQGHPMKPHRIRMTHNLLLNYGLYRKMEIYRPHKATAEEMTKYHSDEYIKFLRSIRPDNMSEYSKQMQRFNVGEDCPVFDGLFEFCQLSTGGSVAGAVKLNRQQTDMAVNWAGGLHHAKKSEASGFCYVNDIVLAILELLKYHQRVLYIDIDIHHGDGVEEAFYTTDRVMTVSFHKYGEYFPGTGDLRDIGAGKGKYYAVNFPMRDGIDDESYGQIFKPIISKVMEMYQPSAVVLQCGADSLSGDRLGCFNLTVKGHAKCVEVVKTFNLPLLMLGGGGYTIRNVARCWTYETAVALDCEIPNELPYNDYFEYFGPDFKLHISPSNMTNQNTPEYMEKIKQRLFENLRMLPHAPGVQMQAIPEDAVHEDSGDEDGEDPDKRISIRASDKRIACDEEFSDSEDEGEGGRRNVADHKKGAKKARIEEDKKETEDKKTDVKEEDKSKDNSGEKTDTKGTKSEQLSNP

EC50 (HDAC3/NcoR2 complex): 47.5 µM | EC50 (HDAC2): 33.4 µM | EC50 (HDAC6): 2.42 µM | EC50 (HDAC8): 20.2 µM | raw luminescence signal, HDAC1 inhibition (HDAC1; log10 M -3.30103, 3 technical replicates): 10948 and 11336 and 10633 | raw luminescence signal, HDAC1 inhibition (HDAC1; log10 M -3.82945, 3 technical replicates): 35128 and 33959 and 34884 | raw luminescence signal, HDAC1 inhibition (HDAC1; log10 M -4.35788, 3 technical replicates): 100059 and 96489 and 102534 | raw luminescence signal, HDAC1 inhibition (HDAC1; log10 M -4.88629, 3 technical replicates): 200567 and 200318 and 195985 | raw luminescence signal, HDAC1 inhibition (HDAC1; log10 M -5.41477, 3 technical replicates): 315045 and 314071 and 307544 | raw luminescence signal, HDAC1 inhibition (HDAC1; log10 M -5.94309, 3 technical replicates): 353287 and 345284 and 342473 | raw luminescence signal, HDAC1 inhibition (HDAC1; log10 M -6.47756, 3 technical replicates): 372512 and 378178 and 378301 | raw luminescence signal, HDAC1 inhibition (HDAC1; log10 M -6.87615, 3 technical replicates): 385390 and 377410 and 356944 | EC50 (HDAC1; read-out: log EC50 from dose-dependent HDAC inhibition curves (converted)): 15.1 µM
Structure (SMILES): O=C(O)CCCCC(S)CCS (racemic) [RS LA reduced, (R/S)-dihydrolipoic acid]

Structure (SMILES): O=C(NO)c1cnc(NC2(c3ccccc3)CC2)nc1 [ACY-738]
α-Tubulin AcK40 acetylation level relative to control (α-Tubulin AcK40): 6.5 fold | DDX3X AcK118 acetylation level relative to control (DDX3X AcK118 [1]): 3.0 fold | DDX3X AcK118 acetylation level relative to control (DDX3X AcK118 [1]; listed as ACY738): 3 fold

Structure (SMILES): CC(=O)N[C@@H](CS)C(=O)O [NAC, N-acetyl-cysteine]
ROS (CellRox), relative to DMSO -Ars., Mean (A549 cells [2]; NAC +Ars): 0.6662 | ROS (CellRox), relative to DMSO -Ars., replicate values (A549 cells [2]; NAC +Ars): 0.6371 and 0.672 and 0.6896 | tBuOOH-induced ROS (CellRox), relative to DMSO, Mean (A549 cells [3]): 0.6999 | tBuOOH-induced ROS (CellRox), relative to DMSO, replicate values (A549 cells [3]): 0.7684 and 0.7006 and 0.6306

Structure (SMILES): O=C(O)CCCc1ccccc1 [Phenylbutyric acid]
EC50 [4]: 300 to 500 µM

Structure (SMILES): CC(C)(C)OO [TBHP]
ROS (CellRox), relative to DMSO -Ars., Mean (A549 cells [2]; TBHP -Ars): 8.0156 | ROS (CellRox), relative to DMSO -Ars., replicate values (A549 cells [2]; TBHP -Ars): 8.277 and 8.688 and 7.082

Structure (SMILES): CN1CCc2c(c3ccccc3n2Cc2ccc(C(=O)NO)cc2)C1 [Tubastatin A]
DDX3X hyperacetylation (DDX3X AcK118 [5]): 2.6 fold

Structure (SMILES): CCCC(CCC)C(=O)O [Valproic acid]
EC50 [4]: 300 to 500 µM
